Assay results from patent US11623922B2, “Compounds” (INFLAZOME LIMITED, priority 2017, dated 2023).

Experiments:
NLRP3 [1] = target: T1, NLRP3 (Homo sapiens, UniProt Q96P20); test: THP-1 cells pyroptosis assay; format: cell-based; set-up: Seed THP-1 cells (25,000 cells/well) containing 1.0 μg/ml LPS in 40 μl of RPMI medium; host or cells: THP-1 cells; conditions: NLRP3 inhibitory activity, 1.0 μg/ml LPS, nigericin 5 μM, resazurin readout
Protocol: The cells were routinely passaged and grown to confluency (˜10^6 cells/ml). On the day of the experiment, THP-1 cells were harvested and resuspended into RPMI medium (without FBS). The cells were then counted and viability (>90%) checked by Trypan blue (Sigma #T8154). […] To this diluted cell solution was added LPS (Sigma #L4524) to give a 1 μg/ml Final Assay Concentration (FAC). 40 μl of the final preparation was aliquoted into each well of a 96-well plate. The plate thus prepared was used for compound screening.
The following method step-by-step assay was followed for compound screening. • 1. […] Incubate for 3 hrs at 37° C. in 5% CO2 • 4. Add 5 μl nigericin (Sigma #N7143) (FAC 5 μM) to all wells • 5. Incubate for 1 hr at 37° C. and 5% CO2 • 6. At the end of the incubation period, spin plates at 300×g for 3 mins and remove supernatant • 7. Then add 50 μl of resazurin (Sigma #R7017) (FAC 100 μM resazurin in RPMI medium without FBS) and incubate plates for a further 1-2 hrs at 37° C. and 5% CO2 • 8. […] IC50 data is fitted to a non-linear regression equation (log inhibitor vs response-variable slope 4-parameters)

NLRP3 [2] = target: T1, NLRP3; test: Human whole blood IL1β release assay; format: cell-based; set-up: Plate out 80 μl of whole blood containing 1 μg/ml of LPS in 96-well, clear bottom cell culture plate; from tissue; host or cells: human whole blood from healthy donors; conditions: NLRP3 inhibitory activity, 1 μg/ml LPS, nigericin 10 μM, IL-1β by AlphaLisa, read-out: HWB IC50
Protocol: For systemic delivery, the ability to inhibit NLRP3 when the compounds are present within the bloodstream is of great importance. For this reason, the NLRP3 inhibitory activity of a number of compounds in human whole blood was investigated in accordance with the following protocol.
Human whole blood in Li-heparin tubes was obtained from healthy donors from a volunteer donor panel. • 1. […] Incubate for 3 hrs at 37° C., 5% CO2 • 4. Add 10 μl nigericin (Sigma #N7143) (10 μM FAC) to all wells • 5. Incubate for 1 hr at 37° C., 5% CO2 • 6. At the end of the incubation period, spin plates at 300×g for 5 mins to pellet cells and remove 20 μl of supernatant and add to 96-well v-bottom plates for IL-1β analysis (note: these plates containing the supernatants can be stored at −80° C. to be analysed at a later date) • 7. IL-1β was measured according to the manufacturer protocol (Perkin Elmer-AlphaLisa IL-1 Kit AL220F-5000) • 8. IC50 data is fitted to a non-linear regression equation (log inhibitor vs response-variable slope 4-parameters)

[3] = PK protocol, intravenous administration in rats; format: in vivo; conditions: rat, 1 mg/kg, male Sprague Dawley rats, plasma; for Vd: read-out: Vdss
Protocol: Pharmacokinetic parameters were determined in male Sprague Dawley rats (Vital River Laboratory Animal Technology Co Ltd, Beijing, China, 7-9 weeks old). Animals were individually housed during the study and maintained under a 12 h light/dark cycle. Animals had free access to food and water.
For intravenous administration, compounds were formulated as a solution in DMSO:PBS [10:90] in 2 mL/kg dosing volume and administered via tail vein.
Serial blood samples (about 200 μL) were taken from each animal at each of 8 time-points post dose (0.083, 0.25, 0.5, 1, 2, 4, 8 and 24 h). Samples were held on ice for no longer than 30 minutes before centrifugation (5,696 rpm (3,000 g) for 15 minutes) for plasma generation. Plasma was frozen on dry ice prior to bioanalysis. PK parameters were generated from LC-MS/MS data using Phoenix WinNonlin 6.3 software.

T1 sequence (Q96P20 whole entry): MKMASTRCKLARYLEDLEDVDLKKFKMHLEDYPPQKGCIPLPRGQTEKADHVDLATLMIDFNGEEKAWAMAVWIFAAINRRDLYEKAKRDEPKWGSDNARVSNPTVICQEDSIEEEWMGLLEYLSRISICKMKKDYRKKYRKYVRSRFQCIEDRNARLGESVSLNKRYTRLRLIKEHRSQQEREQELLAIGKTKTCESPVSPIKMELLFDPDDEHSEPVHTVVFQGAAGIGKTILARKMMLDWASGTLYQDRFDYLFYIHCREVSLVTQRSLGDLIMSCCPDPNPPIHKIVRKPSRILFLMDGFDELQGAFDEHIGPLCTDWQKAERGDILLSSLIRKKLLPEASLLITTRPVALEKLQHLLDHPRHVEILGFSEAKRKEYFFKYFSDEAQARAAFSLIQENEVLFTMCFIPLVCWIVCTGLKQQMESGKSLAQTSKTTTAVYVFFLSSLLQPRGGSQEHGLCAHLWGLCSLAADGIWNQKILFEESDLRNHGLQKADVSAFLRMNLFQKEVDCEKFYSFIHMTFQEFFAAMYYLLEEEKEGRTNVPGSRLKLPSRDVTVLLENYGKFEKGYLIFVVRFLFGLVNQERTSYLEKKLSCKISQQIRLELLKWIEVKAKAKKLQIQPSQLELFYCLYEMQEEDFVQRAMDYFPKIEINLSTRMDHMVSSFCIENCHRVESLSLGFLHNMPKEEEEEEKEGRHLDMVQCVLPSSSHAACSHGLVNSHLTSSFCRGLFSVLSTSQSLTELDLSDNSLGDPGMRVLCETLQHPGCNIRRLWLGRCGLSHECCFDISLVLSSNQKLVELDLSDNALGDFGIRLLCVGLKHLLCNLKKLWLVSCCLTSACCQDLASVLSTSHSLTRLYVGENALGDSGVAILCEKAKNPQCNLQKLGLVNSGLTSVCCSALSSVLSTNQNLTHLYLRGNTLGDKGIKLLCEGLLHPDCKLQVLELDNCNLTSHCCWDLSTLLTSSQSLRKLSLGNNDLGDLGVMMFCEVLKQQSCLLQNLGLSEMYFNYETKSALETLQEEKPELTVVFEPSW

| Compound | IC50 (NLRP3 [1]) [nM] | IC50 (NLRP3 [2]) [nM] | AUC [3] [ng·h/mL] | clearance [3] [mL/min/kg] | half-life [3] [h] | Vd [3] [L/kg] |
| --- | --- | --- | --- | --- | --- | --- |
| 5-(Azetidin-1-ylmethyl)-N-((4-fluoro-2,6-diisopropylphenyl) carbamoyl)-1-methyl-1H-pyrazole-3-sulfonimidamide [Example 23] | < 100 | < 5000 |  |  |  |  |
| COc1cc(-c2ccc3c(c2NC(=O)NS(=N)(=O)c2ccn(C(C)C)n2)CCC3)ccn1 (racemic) [Example 14, 1-Isopropyl-N-((5-(2-methoxypyridin-4-yl)-2,3-dihydro-1H-inden-4-yl)carbamoyl)-1H-pyrazole-3-sulfonimidamide] | < 100 | < 500 | 1740 | 9.6 | 0.9 | 0.34 |
| CC(C)n1cc(Cl)c(S(=N)(=O)NC(=O)Nc2c3c(cc4c2CCC4)CCC3)n1 (centres unmarked) [Example 2, 4-Chloro-N-((1,2,3,5,6,7-hexahydro-s-indacen-4-yl)carbamoyl)-1-iso-propyl-1H-pyrazole-3-sulfonimidamide] | < 100 | < 5000 |  |  |  |  |
| C[C@@H](O)Cn1ccc(S(=N)(=O)NC(=O)Nc2c3c(cc4c2CCC4)CCC3)n1 (stereo partly drawn) [Example 3, N-((1,2,3,5,6,7-Hexahydro-s-indacen-4-yl)carbamoyl)-1-((R)-2-hydroxypropyl)-1H-pyrazole-3-sulfonimidamide] | < 100 | < 500 | 2250 | 7.4 | 2.7 | 0.75 |
| CCN(CC)CCCS(=N)(=O)NC(=O)Nc1c2c(cc3c1CCC3)CCC2 (centres unmarked) [Example 6, 3-(Diethylamino)-N-((1,2,3,5,6,7-hexahydro-s-indacen-4-yl)carbamoyl) propane-1-sulfonimidamide] | < 10000 |  |  |  |  |  |
| CC(C)N1CC(S(=N)(=O)NC(=O)Nc2c3c(cc4c2CCC4)CCC3)C1 (centres unmarked) [Example 7, N-((1,2,3,5,6,7-Hexahydro-s-indacen-4-yl)carbamoyl)-1-isopropyl-azetidine-3-sulfonimidamide] | < 5000 | < 5000 |  |  |  |  |
| CN(C)CCn1ccc(S(=N)(=O)NC(=O)Nc2c3c(cc4c2CCC4)CCC3)n1 (centres unmarked) [Example 10, 1-(2-(Dimethylamino)ethyl)-N-((1,2,3,5,6,7-hexahydro-s-indacen-4-yl)carbamoyl)-1H-pyrazole-3-sulfonimidamide] | < 500 | < 500 |  |  |  |  |
| COc1cc(-c2ccc3c(c2NC(=O)NS(=N)(=O)c2nn(C(C)C)cc2Cl)CCC3)ccn1 (centres unmarked) [Example 11, 4-Chloro-1-isopropyl-N-((5-(2-methoxypyridin-4-yl)-2,3-dihydro-1H-inden-4-yl)carbamoyl)-1H-pyrazole-3-sulfonimidamide] | < 100 | < 1000 | 2720 | 6.1 | 1 | 0.45 |
| CC(C)c1cc(F)cc(-c2ccnc(C#N)c2)c1NC(=O)NS(=N)(=O)c1nn(C(C)C)cc1Cl (centres unmarked) [Example 12, 4-Chloro-N-((2-(2-cyanopyridin-4-yl)-4-fluoro-6-isopropylphenyl)carbamoyl)-1-isopropyl-1H-pyrazole-3-sulfonimidamide] | < 100 | < 500 |  |  |  |  |
| COc1cc(-c2cc(F)cc(C(C)C)c2NC(=O)NS(=N)(=O)c2nn(C(C)C)cc2Cl)ccn1 (centres unmarked) [Example 13, 4-Chloro-N-((4-fluoro-2-isopropyl-6-(2-methoxypyridin-4-yl)phenyl)carbamoyl)-1-isopropyl-1H-pyrazole-3-sulfonimidamide] | < 100 | < 1000 |  |  |  |  |
| CC(C)c1cc(F)cc(-c2ccnc(C#N)c2)c1NC(=O)NS(=N)(=O)c1ccn(C(C)C)n1 (centres unmarked) [Example 15, N-((2-(2-Cyanopyridin-4-yl)-4-fluoro-6-isopropylphenyl)carbamoyl)-1-isopropyl-1H-pyrazole-3-sulfonimidamide] | < 1000 | < 1000 |  |  |  |  |
| COc1cc(-c2cc(F)cc(C(C)C)c2NC(=O)NS(=N)(=O)c2ccn(C(C)C)n2)ccn1 (centres unmarked) [Example 16, N-((4-Fluoro-2-isopropyl-6-(2-methoxypyridin-4-yl)phenyl)carbamoyl)-1-isopropyl-1H-pyrazole-3-sulfonimidamide] | < 100 | < 1000 |  |  |  |  |
| COc1cc(-c2ccc3c(c2NC(=O)NS(=N)(=O)c2ccn(C[C@@H](C)O)n2)CCC3)ccn1 (stereo partly drawn) [Example 17, 1-((R)-2-Hydroxypropyl)-N-((5-(2-methoxypyridin-4-yl)-2,3-dihydro-1H-inden-4-yl)carbamoyl)-1H-pyrazole-3-sulfonimidamide] | < 100 | < 500 |  |  |  |  |
| COc1cc(-c2cc(F)cc(C(C)C)c2NC(=O)NS(=N)(=O)c2ccn(C[C@@H](C)O)n2)ccn1 (stereo partly drawn) [Example 19, N-((4-Fluoro-2-isopropyl-6-(2-methoxypyridin-4-yl)phenyl)carbamoyl)-1-((R)-2-hydroxypropyl)-1H-pyrazole-3-sulfonimidamide] | < 100 | < 1000 |  |  |  |  |
| CC(c1cc(S(=N)(=O)NC(=O)Nc2c3c(cc4c2CCC4)CCC3)nn1C)N1CCC1 (centres unmarked) [Example 22, 5-(1-(Azetidin-1-yl)ethyl)-N-((1,2,3,5,6,7-hexahydro-s-indacen-4-yl)carbamoyl)-1-methyl-1H-pyrazole-3-sulfonimidamide] | < 100 | < 500 |  |  |  |  |
| CC(C)n1ccc(S(=N)(=O)NC(=O)Nc2c(-c3ccncc3)cc(F)c3c2CCC3)n1 (centres unmarked) [Example 24, N-((7-Fluoro-5-(pyridin-4-yl)-2,3-dihydro-1H-inden-4-yl)carbamoyl)-1-isopropyl-1H-pyrazole-3-sulfonimidamide] | < 100 | < 500 |  |  |  |  |
| C[C@@H](O)Cn1ccc(S(=N)(=O)NC(=O)Nc2c(-c3ccncc3)cc(F)c3c2CCC3)n1 (stereo partly drawn) [Example 25, N-((7-Fluoro-5-(pyridin-4-yl)-2,3-dihydro-1H-inden-4-yl)carbamoyl)-1-((R)-2-hydroxypropyl)-1H-pyrazole-3-sulfonimidamide] | < 100 | < 500 |  |  |  |  |
| CC(C)n1cc(Cl)c(S(=N)(=O)NC(=O)Nc2c(-c3ccncc3)cc(F)c3c2CCC3)n1 (centres unmarked) [Example 26, 4-Chloro-N-((7-fluoro-5-(pyridin-4-yl)-2,3-dihydro-1H-inden-4-yl)carbamoyl)-1-isopropyl-1H-pyrazole-3-sulfonimidamide] | < 100 | < 500 |  |  |  |  |
| COc1cc(-c2ccc3c(c2NC(=O)N[S@@](=N)(=O)c2ccn(C(C)C)n2)CCC3)ccn1 [Example 27, (R)-1-Isopropyl-N-((5-(2-methoxypyridin-4-yl)-2,3-dihydro-1H-inden-4-yl)carbamoyl)-1H-pyrazole-3-sulfonimidamide] | < 100 | < 500 |  |  |  |  |
| COc1cc(-c2ccc3c(c2NC(=O)N[S@](=N)(=O)c2ccn(C(C)C)n2)CCC3)ccn1 [Example 28, (S)-1-Isopropyl-N-((5-(2-methoxypyridin-4-yl)-2,3-dihydro-1H-inden-4-yl)carbamoyl)-1H-pyrazole-3-sulfonimidamide] | < 1000 | < 5000 |  |  |  |  |
| N-((2-(2-Cyanopyridin-4-yl)-4-fluoro-6-isopropylphenyl)carbamoyl)-1-((R)-2-hydroxypropyl)-1H-pyrazole-3-sulfonimidamide [Example 18] | < 500 | < 500 |  |  |  |  |
